Here are results for 1 sequence from patent US20240327459A1, “PEPTIDE FRAGMENTS FOR TREATMENT OF DIABETES” (Follicum AB, priority 2018, published 2024).

Assay [1] has as its system INS-1E cells. Description: Insulin secretion from INS-1E cells (Example 18). The assay is classed as cell-based, rat. As to conditions: 100 nM peptide, high (16.7 mM) glucose buffer, 60 min, vs un-supplemented buffer. The method, then:
To investigate the stimulatory effect of FOL-056 on insulin secretion we used INS-1E cells. The cells were seeded overnight and washed with PBS before pre-incubation for 60 min at 37° C. in Krebs-Ringer bicarbonate buffer (KRB), pH 7.4, supplemented with 10 mM HEPES, 0.1% bovine serum albumin. Following pre-incubation, the buffer was discarded and the INS-1E cells were incubated in fresh KRB buffer supplemented with 10 mM HEPES, 0.1% bovine serum albumin with or without peptide FOL-056. For comparative purposes cells treated with FOL-014 was included. Following 60 min incubation at 37.C, the buffer was removed and frozen for subsequent insulin assay.

The test system of assay [2] is INS-1E cells. Description: Insulin secreting capacity after 72 hours of glucotoxic conditions (Examples 19, 22). It counts as cell-based, rat. As to conditions: Example 19, 20 mM glucose 72 hours with peptide, then 16.7 mM glucose 1 h. The protocol:
To investigate the β-cell protective effect of FOL-056, we subjected INS-1E to cytotoxic levels of glucose for 72 hours. Rat INS-1E cells were seeded in 96-well plates (2×10^3 cells/well) in cRPMI medium. Following 72 hours of incubation, the medium was changed to RPMI containing 20 mM glucose with or without FOL-056 or FOL-014 and were cultured at 37° C. during an additional 72 hours to induce glucotoxicity. RPMI containing 5 mM glucose was included as a low glucose control. Following 72 hours, the medium was removed and the INS-1E cells were equilibrated in Krebs-Ringer bicarbonate buffer (KREB), pH 7.4, (supplemented with 10 mM HEPES, 0.1% bovine serum albumin and 2.8 mM glucose) for 2 hours. After equilibration, the buffer was changed and the INS-1E cells were incubated in KREBs containing 16.7 mM glucose […] during 1 h. Immediately after incubation, an aliquot of the buffer was removed and frozen for subsequent assay of insulin content.
To investigate the β-cell protective effect of several novel peptide fragments derived from FOL-005 and FOL-014, INS-1 cells were subjected to cytotoxic levels of glucose for 72 hours. […] In order to correct for the variance between experiments, all values were normalized to, and expressed as percentage of the average value of the high glucose control in the individual experiments. […]

For assay [3], the system named is human pancreatic β-cell line 1.2B4. Description: Insulin secretion from 1.2B4 human β-cells. The assay is classed as cell-based. The following applies: 100 nM peptide, 16.7 mM glucose, 60 minutes. The protocol: In order to test the effect of FOL-014 and FOL-056 in human cells, the human pancreatic β-cell line 1.2B4 were cultured at 37° C. and 5% CO2 in RPMI 1640 supplemented with 10% fetal bovine serum, 50 IU/mL penicillin, 50 mg/L streptomycin, 1 mM L-glutamine. 1.2B4 cells were seeded in 24-well plates in RPMI medium and following overnight incubation, the medium was removed before pre-incubation for 40 min at 37° C. in Krebs-Ringer bicarbonate buffer, pH 7.4, supplemented with 10 mM HEPES, 0.1% bovine serum albumin and 1.0 mM glucose. Following pre-incubation, the buffer was exchanged with fresh Krebs-Ringer buffer as described above and supplemented with specific glucose concentrations, 1 mM or 16.7 mM. FOL-014, FOL-056 or Liraglutide was added at a concentration of 100 nM in the presence of 16.7 mM glucose. Immediately after 60 minutes incubation at 37° C., an aliquot of the buffer was removed and frozen for subsequent insulin ELISA assay. (FIG. 18)

The subject of the next assay is human islets. Description: Insulin secretion from human pancreatic islets. It counts as cell-based. As to conditions: 1 nM peptide, 16.7 mM glucose, 60 minutes, two donors. The protocol:
To investigate the functionality of FOL-056 in human primary tissue, the pancreatic islets from two non-diabetic human donors were used. Islets were picked, aliquoted in groups of 12 and incubated at 37° C. in 1 ml Krebs-Ringer bicarbonate buffer, pH 7.4, supplemented with 10 mM HEPES, 0.1% bovine serum albumin and 1.0 mM glucose. Following pre-incubation, the buffer was exchanged with fresh Krebs-Ringer buffer as described above and supplemented with specific glucose concentrations (1 mM or 16.7 mM), FOL-056 peptides (1 nM) or Liraglutide (100 nM). Immediately after 60 minutes incubation at 37° C., an aliquot of the buffer was removed and frozen for subsequent insulin ELISA assay. (FIG. 19)

In assay [4] the test system is diet induced obese c57BI6 mice. Description: Acute insulin response in diet induced obese mice after long term dosing. As to conditions: 300 nmol/kg subcutaneously 5 days per week, 12 weeks high fat diet; 1 minute after 1 g/kg iv glucose; P=0.01. The assay is classed as in vivo, mouse. The method, then: Materials and methods: To investigate the effects of FOL-056 in vivo in a high fat diet model, wild type c57BI6 mice were subcutaneously dosed 5 days per week with 300 nmol/kg FOL-056, while being fed high fat diet for 12 weeks. Control animals were dosed with PBS.
In diet induced obese c57BI6 mice, untreated or dosed with FOL-056, the fasting plasma insulin levels were measured before as well as 1 minute after an intravenous glucose injection of 1 g/kg. The insulin value measured before the glucose injection was subtracted from the value measured after the injection for each individual mouse in order to obtain the acute insulin response (AIR). (FIG. 20)

A further assay deals with db/db mice. Description: HbA1c in db/db mice after 4 weeks of dosing. It counts as in vivo, mouse. The following applies: 100 nmol/kg subcutaneously, 5 days per week for 4 weeks, vs PBS control. The protocol: To investigate the long-term effect of FOL-014 and FOL-056 in diabetic mice, db/db mice were dosed with 100 nmol/kg peptide subcutaneously, 5 days per week for 4 weeks. Control mice were injected with PBS. After 4 weeks of treatment the mice were terminated and 25 μl whole blood was immediately frozen for subsequent HbA1c analysis. (FIG. 21).

“Also recorded” adds a separate entry of the source.

On to “AEIDSIELSYGIK (MISC_FEATURE - peptide) [FOL-056]”, for which the figures for the insulin secretion result (with INS-1E cells [1]; in assay [3]; in the assay on human islets) were “secrete significantly more insulin compared to unstimulated control cells; also recorded: significantly increased the insulin secretion as compared with cells treated with an un-supplemented high glucose buffer”, “increase the insulin secretion capacity in 1.2B4 human β-cells; also recorded: significantly increased the insulin secretion as compared with cells treated with an un-supplemented high glucose buffer” and “potentiates the capacity of primary human pancreatic islets to secrete insulin as a response to high glucose levels; also recorded: significantly increased the insulin secretion as compared with cells treated with an un-supplemented high glucose buffer”, respectively. In the assay on INS-1E cells [2], the “insulin secreting ability after glucotoxic conditions” value was “preserves β-cell function as shown by retained glucose induced insulin secretion; also recorded: abolished the glucotoxic effects and retained insulin release at the same level as from β-cells in the low (5 mM) glucose treatment group”. In addition, in assay [4], the “acute insulin response (AIR)” value is “significantly improved; also recorded: significantly higher”. Also, the HbA1c result in the assay on db/db mice is “reduce the HbA1c in db/db mice as compared with the untreated control group; also recorded: significantly lower HbA1c”.
